Measured values taken from patent US20220281915A1, “COMPOSITIONS COMPRISING BOVINE ADRENAL MEDULLA 8-22 (BAM8-22) PEPTIDE ANALOGS AND METHODS OF USE” (OKYO Pharma Limited, priority 2019, published 2022).
Read-outs that look alike come from different tables or passages of the source. Non-standard residues stand in square brackets, D forms with d. Residues, ends and D or L forms follow the SMILES beside them. No end group written: not given here. Nle = CCCC[C@H](N)C(=O)O

How the values were obtained:
human MRGPRX1 receptor = human MRGPRX1 receptor (Homo sapiens, UniProt Q96LB2); assay: DiscoverX calcium mobilization cell culture assay, agonist mode (FLIPR Tetra); type: cell-based; settings: Table 2 initial screening data, agonist format, peptides
Method: DiscoverX® Calcium cell line overexpressing naturally Gq coupled, wildtype human MRGPRX1 receptor was used to detect calcium mobilization in response to agonist stimulation of the receptor. Cells were plated in a 384-well plate and incubated overnight at 37° C. and 5% CO2 to allow the cells to attach and grow. Culture media was removed and replaced with dye loading buffer from the Calcium No WashPLUS detection kit according to the recommended protocol. Cells were incubated with peptides to induce response and calcium mobilization was detected using a FLIPR® Tetra (Molecular Devices, Inc.).
Compound activity was analyzed using Chemical and Biological Information System (CBIS) data analysis suite (ChemInnovation, CA). For agonist mode assays, percentage activity is calculated using the following formula: % Activity=100%×(mean RFU of test sample−mean RFU of vehicle control)/(mean MAX RFU control ligand−mean RFU of vehicle control). […] RFU means relative fluorescence units.

mechanical allodynia [1] = settings: mouse, chronic constriction injury, intrathecal; cited from earlier work
mechanical allodynia [2] = settings: rat, spinal nerve ligation, intrathecal; cited from earlier work

Sequence of human MRGPRX1 receptor (Q96LB2 whole entry): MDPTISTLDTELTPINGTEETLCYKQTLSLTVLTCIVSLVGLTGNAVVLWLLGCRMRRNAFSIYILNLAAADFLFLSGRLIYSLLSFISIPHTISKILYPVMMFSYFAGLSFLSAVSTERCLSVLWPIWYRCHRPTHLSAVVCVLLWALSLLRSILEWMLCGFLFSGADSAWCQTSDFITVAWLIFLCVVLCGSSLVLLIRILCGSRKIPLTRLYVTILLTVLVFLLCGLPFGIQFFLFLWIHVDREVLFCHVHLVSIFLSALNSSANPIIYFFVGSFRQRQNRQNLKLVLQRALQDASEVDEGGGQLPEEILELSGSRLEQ

Row | Compound | EC50 (human MRGPRX1 receptor) | baseline nociception (mechanical allodynia [1]) | mechanical allodynia (mechanical allodynia [1]) | baseline nociception (mechanical allodynia [2]) | mechanical allodynia (mechanical allodynia [2])
1 | VGRPEWWMDSQKRYG [OK-202, VGRPEWWMDSQKRYG (SEQ ID NO: 54)] | 1580 nM |  |  |  | 
2 | VGRPEWWMDYQKRYG [BAM-8-22, VGRPEWWMDYQKRYG (SEQ ID NO: 21)] | 1.33 nM | did not affect baseline nociception | attenuates mechanical allodynia | did not affect baseline nociception | attenuates mechanical allodynia

Now from value to compound, other results behind:

Row | EC50 (human MRGPRX1 receptor) | Compound | baseline nociception (mechanical allodynia [1]) | mechanical allodynia (mechanical allodynia [1]) | baseline nociception (mechanical allodynia [2]) | mechanical allodynia (mechanical allodynia [2])
3 | 11.1 nM | CCCC[C@H](NC(=O)[C@H](Cc1c[nH]c2ccccc12)NC(=O)[C@H](Cc1c[nH]c2ccccc12)NC(=O)[C@H](CCC(=O)O)NC(=O)[C@@H]1CCCN1C(=O)[C@H](CCCNC(=N)N)NC(=O)CNC(=O)[C@@H](N)C(C)C)C(=O)N[C@@H](CC(=O)O)C(=O)N[C@@H](Cc1ccc(O)cc1)C(=O)N[C@@H](CCC(N)=O)C(=O)N[C@@H](CCCCN)C(=O)N[C@@H](CCCNC(=N)N)C(=O)N[C@@H](Cc1ccc(O)cc1)C(=O)NCC(=O)O [OK-205, VGRPEWW-Nle-DYQKRYG (SEQ ID NO: 22)] (H-VGRPEWW[Nle]DYQKRYG-OH; N-terminus and C-terminus assumed) |  |  |  | 
4 | 1.02 nM | CSCC[C@H](NC(=O)[C@H](Cc1c[nH]c2ccccc12)NC(=O)[C@H](Cc1c[nH]c2ccccc12)NC(=O)[C@H](CCC(=O)O)NC(=O)[C@@H]1CCCN1C(=O)[C@H](CCCNC(=N)N)NC(=O)CNC(=O)[C@H](N)C(C)C)C(=O)N[C@@H](CC(=O)O)C(=O)N[C@@H](Cc1ccc(O)cc1)C(=O)N[C@@H](CCC(N)=O)C(=O)N[C@@H](CCCCN)C(=O)N[C@@H](CCCNC(=N)N)C(=O)N[C@@H](Cc1ccc(O)cc1)C(=O)NCC(=O)O [OK-206, dV-GRPEWWMDYQKRY-dG (SEQ ID NO: 23)] (H-[dV]GRPEWWMDYQKRYG-OH; N-terminus and C-terminus assumed) |  |  |  | 
5 | 0.67 nM | GRPEWWMDYQKRY [OK-203, GRPEWWMDYQKRY (SEQ ID NO: 3)] |  |  |  | 
